In patent US20080027143A1, “CHEMICAL FORMULATION FOR AN INSECTICIDE” (priority 2006, published 2008):

How the values were obtained:
Format in all cases: physicochemical
[1] = Release rates over 14 days for solvents with different boiling point ranges (Table 7)
Text: The effect of solvents with different boiling point ranges on release rates were studied and the results are show in the following Table 7: [table]

[2] = Release rate and evaporation loss from piezoelectric diffusion device (Table 5); settings: for Evaporation Loss: OFF switch position, average of 30 hours; for Evaporation Loss / Release Rate in High Setting: 3 repetitions; for Release Rate in High Setting: ON, high switch setting, average of 13 hours
Text: A highly permeable wick is used in the diffusion device 20 to ensure easy and effective transfer of the liquid from the tip of the wick to the orifice plate 110. In addition, the plug and wick holder 72 that is fitted to the reservoir 50 includes two small orifices to enable equilibration of pressure between the headspace in the reservoir and the surrounding atmosphere. These design factors lead to slow evaporation of the solvent regardless of where the device 20 is switched on or off. Solvents with high volatility tend to evaporate more rapidly leading to concentration of the insecticide in the reservoir 50. This increases the viscosity of the formula and slows down the overall release rates, leading to a negative impact on product performance. […] [table]

[3] = Viscosity of solvent; settings: at 25 deg. C.
Protocol: Referring again to Table 5, release rates of 8.0 wt %/wt % Transfluthrin in solvent are strongly correlated to viscosity of solvent. A solvent viscosity of less than or substantially equal to about 4 centistokes (cSt) at 25 Celsius is preferred as release rates stay above 5 mg/hr. Release rates lower than 5 mg/hr require much higher concentration of insecticide (higher insecticidal concentrations lead to thickening of the formula which may become unacceptable to delivery via piezoelectric delivery systems). A solvent viscosity of less than or substantially equal to about 3 cSt is more preferred as this enables the insecticidal concentration(s) to be kept below 10%.

[4] = Storage stability of insecticide in solvent
Text: Stability data determined using analytical tools are given below:

[5] = With 8.0 wt %/wt % Transfluthrin in Solvent

For `CCCOCC(C)O` (stereo not shown) [DOWANOL ® PnP], the “Residual Liquid” value ([1]; after the 14 days) was “Zero”, the “Average Release Rate during 1–5 days” value ([1]; high setting, average period of 7.1 hours per day, days 1–5) was 19.1 mg/h and the “Average Release Rate during 6–10 days” value ([1]; high setting, average period of 7.1 hours per day, days 6–10) was 18.0 mg/h. The “Average Release Rate during 11–14 days” value ([1]; high setting, average period of 7.1 hours per day, days 11–14) was 10.0 mg/h, the “Evaporation Loss as Percent of Release Rate” value [2, 5] was 73.1% and the “Evaporation Loss” value [2, 5] was 16.05 mg/h. For the same compound, the “Release Rate in High Setting” value [2, 5] was 22.0 mg/h, the “Evaporation Loss as Percent of Release Rate” value ([2]; With Pure Solvent) was 38.4% and the “Evaporation Loss” value ([2]; With Pure Solvent) was 9.73 mg/h. For the same compound, the “Release Rate in High Setting” value ([2]; With Pure Solvent) was 25.3 mg/h and the “Viscosity of Solvent” value [3] was 2.7 cSt.

For `C/C=C/C1C(C(=O)OCc2c(F)c(F)c(COC)c(F)c2F)C1(C)C` (stereo not shown) [Metofluthrin], the “Stability in hydrocarbon solvents (conclusion)” value [4] was “stable”.

For `CC1(C)[C@H](C=C(Cl)Cl)[C@H]1C(=O)OCc1c(F)c(F)cc(F)c1F` [Transfluthrin], the “Stability in hydrocarbon solvents (conclusion)” value [4] was “stable”.
